Data reported in PMC4979481, “Functional characterization of the ectopically expressed olfactory receptor 2AT4 in human myelogenous leukemia” (Cell Death Discovery, 2016).

Target: T1, OR2AT4 (olfactory receptor 2AT4) (Homo sapiens, UniProt A6NND4)
T1 sequence (A6NND4 1-320): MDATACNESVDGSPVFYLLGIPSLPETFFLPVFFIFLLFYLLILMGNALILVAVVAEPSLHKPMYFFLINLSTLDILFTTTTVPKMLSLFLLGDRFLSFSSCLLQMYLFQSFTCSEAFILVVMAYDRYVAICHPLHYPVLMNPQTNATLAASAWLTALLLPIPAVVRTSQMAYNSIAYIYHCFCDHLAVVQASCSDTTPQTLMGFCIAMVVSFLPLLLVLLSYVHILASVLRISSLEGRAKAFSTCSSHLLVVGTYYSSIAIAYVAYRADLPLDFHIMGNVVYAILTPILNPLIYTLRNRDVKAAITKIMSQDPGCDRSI
Experiment: calcium imaging dose-response in K562 cells (endogenous receptor), blocked by antagonist Phenirat
Assay type: cell-based

With `CC1=CCC(CCC(C)C(C)O)C1(C)C` (stereo not shown) [Sandalore] the EC50 was 265 µM.
